In ChEMBL document CHEMBL5346962, “Discovery of Sulanemadlin (ALRN-6924), the First Cell-Permeating, Stabilized α-Helical Peptide in Clinical Development” (J Med Chem, 2023):
Bridge positions count the residues as written; N and C are the ends. Square brackets hold non-standard residues; d marks the D form. Peptide text beside a SMILES is read from it. R8 = C=CCCCCCC[C@@](C)(N)C(=O)O; S5 = C=CCCC[C@](C)(N)C(=O)O

System: SJSA-1
Assay: Cytotoxicity against human SJSA-1 cells incubated for 72 hrs in presence of 10% FBS by MTT assay
Conditions: SJSA-1, 72 h

`CC(=O)N[C@@H](CC(C)C)C(=O)N[C@H](C(=O)N[C@@H](Cc1ccccc1)C(=O)N[C@]1(C)CCCCCC/C=C\CCC[C@@](C)(C(=O)N[C@@H](C)C(=O)N[C@@H](C)C(=O)N[C@@H](C)C(=O)O)NC(=O)[C@H](CC(C)C)NC(=O)[C@H](CCC(N)=O)NC(=O)[C@H](C)NC(=O)[C@H](Cc2c[nH]c3ccccc23)NC(=O)[C@H](Cc2ccc(O)cc2)NC(=O)[C@H](CCC(=O)O)NC1=O)[C@@H](C)O` (Ac-LTF[R8]EYWAQL[S5]AAA-OH; staple (Z) 4-11) showed an EC50 of 2500 nM.
